# According to PubChem BioAssay AID1918935 (Molecular Pharmacology Branch, DTP, NCI, 2023):
# System: 324938-238-R-J1-PDC complex spheroid viability
# Assay: Anticancer human tumor 324938-238-R-J1-PDC patient-derived bladder carcinoma cell line growth inhibition
# Conditions: for IC50: curve of first compound; for viability, T/C: stronger effect = lower value
# Procedure, shortened: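 Drug combinations with the LSD1 inhibitor iadademstat tested on tumor cells co-cultured as spheroids with endothelial cells and mesenchymal stem cells. Concentrations descended in half-log increments from clinical Cmax or 10 microM.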
# [1] = second compound 0.1 µM, first compound 0.00949 µM
# [2] = second compound 0.1 µM, first compound 0.03 µM
# [3] = second compound 0.1 µM, first compound 0.0949 µM
# [4] = second compound 0.1 µM, first compound 0.3 µM
# [5] = second compound 0.1 µM, first compound 0.949 µM
# [6] = second compound 0.1 µM, first compound 3 µM
# [7] = second compound 0.316 µM, first compound 0.00949 µM
# [8] = second compound 0.316 µM, first compound 0.03 µM
# [9] = second compound 0.316 µM, first compound 0.0949 µM
# [10] = second compound 0.316 µM, first compound 0.3 µM
# [11] = second compound 0.316 µM, first compound 0.949 µM
# [12] = second compound 0.316 µM, first compound 3 µM
# [13] = second compound 1 µM, first compound 0.00949 µM
# [14] = second compound 1 µM, first compound 0.03 µM
# [15] = second compound 1 µM, first compound 0.0949 µM
# [16] = second compound 1 µM, first compound 0.3 µM
# [17] = second compound 1 µM, first compound 0.949 µM
# [18] = second compound 1 µM, first compound 3 µM
# [19] = second compound 3.16 µM, first compound 0.00949 µM
# [20] = second compound 3.16 µM, first compound 0.03 µM
# [21] = second compound 3.16 µM, first compound 0.0949 µM
# [22] = second compound 3.16 µM, first compound 0.3 µM
# [23] = second compound 3.16 µM, first compound 0.949 µM
# [24] = second compound 3.16 µM, first compound 3 µM
# [25] = second compound 10 µM, first compound 0.00949 µM
# [26] = second compound 10 µM, first compound 0.03 µM
# [27] = second compound 10 µM, first compound 0.0949 µM
# [28] = second compound 10 µM, first compound 0.3 µM
# [29] = second compound 10 µM, first compound 0.949 µM
# [30] = second compound 10 µM, first compound 3 µM
# 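Note: spheroids also contain HUVEC and human MSCs and agents combined with iadademstat; spheroids exposed to agents for 7 days before readout.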
smiles,measurement,setting,value
COc1cc(Nc2ncc3c(n2)-c2ccc(Cl)cc2C(c2c(F)cccc2OC)=NC3)ccc1C(=O)O + NC1CC1c1ccc(-c2cccc(O)c2)cc1,IC50,second compound 0.1 µM,0.0107 µM
same,IC50,second compound 0.316 µM,0.00945 µM
same,IC50,second compound 1 µM,0.0119 µM
same,IC50,second compound 3.16 µM,0.0137 µM
same,IC50,second compound 10 µM,0.0108 µM
same,"viability, T/C","second compound 0.1 µM, first compound 0.00316 µM",76.1%
same,"viability, T/C","second compound 0.1 µM, first compound 0.01 µM",51%
same,"viability, T/C","second compound 0.1 µM, first compound 0.0316 µM",28.1%
same,"viability, T/C","second compound 0.1 µM, first compound 0.1 µM",13.9%
same,"viability, T/C","second compound 0.1 µM, first compound 0.316 µM",18.2%
same,"viability, T/C","second compound 0.1 µM, first compound 1 µM",13.9%
same,"viability, T/C","second compound 0.316 µM, first compound 0.00316 µM",69.5%
same,"viability, T/C","second compound 0.316 µM, first compound 0.01 µM",48.3%
same,"viability, T/C","second compound 0.316 µM, first compound 0.0316 µM",30%
same,"viability, T/C","second compound 0.316 µM, first compound 0.1 µM",16%
same,"viability, T/C","second compound 0.316 µM, first compound 0.316 µM",15.8%
same,"viability, T/C","second compound 0.316 µM, first compound 1 µM",14.8%
same,"viability, T/C","second compound 1 µM, first compound 0.00316 µM",63%
same,"viability, T/C","second compound 1 µM, first compound 0.01 µM",54.3%
same,"viability, T/C","second compound 1 µM, first compound 0.0316 µM",26.2%
same,"viability, T/C","second compound 1 µM, first compound 0.1 µM",16.5%
same,"viability, T/C","second compound 1 µM, first compound 0.316 µM",17.6%
same,"viability, T/C","second compound 1 µM, first compound 1 µM",15.1%
same,"viability, T/C","second compound 3.16 µM, first compound 0.00316 µM",62.6%
same,"viability, T/C","second compound 3.16 µM, first compound 0.01 µM",57.6%
same,"viability, T/C","second compound 3.16 µM, first compound 0.0316 µM",30%
same,"viability, T/C","second compound 3.16 µM, first compound 0.1 µM",18.1%
same,"viability, T/C","second compound 3.16 µM, first compound 0.316 µM",18.8%
same,"viability, T/C","second compound 3.16 µM, first compound 1 µM",16.5%
same,"viability, T/C","second compound 10 µM, first compound 0.00316 µM",57.4%
same,"viability, T/C","second compound 10 µM, first compound 0.01 µM",51.2%
same,"viability, T/C","second compound 10 µM, first compound 0.0316 µM",29.5%
same,"viability, T/C","second compound 10 µM, first compound 0.1 µM",19.4%
same,"viability, T/C","second compound 10 µM, first compound 0.316 µM",19.7%
same,"viability, T/C","second compound 10 µM, first compound 1 µM",25.8%
CCN(c1cc(-c2ccc(CN3CCOCC3)cc2)cc(C(=O)NCc2c(C)cc(C)[nH]c2=O)c1C)C1CCOCC1 + NC1CC1c1ccc(-c2cccc(O)c2)cc1,IC50,second compound 0.1 µM,> 3 µM
same,IC50,second compound 0.316 µM,> 3 µM
same,IC50,second compound 1 µM,> 3 µM
same,IC50,second compound 3.16 µM,> 3 µM
same,IC50,second compound 10 µM,> 3 µM
same,"viability, T/C",[1],91.3%
same,"viability, T/C",[2],91.9%
same,"viability, T/C",[3],89.8%
same,"viability, T/C",[4],79.1%
same,"viability, T/C",[5],89%
same,"viability, T/C",[6],80.1%
same,"viability, T/C",[7],84.4%
same,"viability, T/C",[8],80.1%
same,"viability, T/C",[9],80.3%
same,"viability, T/C",[10],81.6%
same,"viability, T/C",[11],85.1%
same,"viability, T/C",[12],79.8%
same,"viability, T/C",[13],74.2%
same,"viability, T/C",[14],77.2%
same,"viability, T/C",[15],72.6%
same,"viability, T/C",[16],72.9%
same,"viability, T/C",[17],76.9%
same,"viability, T/C",[18],78.6%
same,"viability, T/C",[19],79%
same,"viability, T/C",[20],79.3%
same,"viability, T/C",[21],77.1%
same,"viability, T/C",[22],77.5%
same,"viability, T/C",[23],76.6%
same,"viability, T/C",[24],74.2%
same,"viability, T/C",[25],66.4%
same,"viability, T/C",[26],77%
same,"viability, T/C",[27],66.8%
same,"viability, T/C",[28],62.8%
same,"viability, T/C",[29],66.5%
same,"viability, T/C",[30],68.1%
NS(=O)(=O)OCC1CC(n2ccc3c(NC4CCc5ccccc54)ncnc32)CC1O (stereo not given) + NC1CC1c1ccc(-c2cccc(O)c2)cc1,IC50,second compound 0.1 µM,0.327 µM
same,IC50,second compound 0.316 µM,0.23 µM
same,IC50,second compound 1 µM,0.299 µM
same,IC50,second compound 3.16 µM,0.3 µM
same,IC50,second compound 10 µM,0.334 µM
same,"viability, T/C",[1],97.7%
same,"viability, T/C",[2],101%
same,"viability, T/C",[3],95.1%
same,"viability, T/C",[4],53.2%
same,"viability, T/C",[5],12.4%
same,"viability, T/C",[6],12%
same,"viability, T/C",[7],84.6%
same,"viability, T/C",[8],84.8%
same,"viability, T/C",[9],76%
same,"viability, T/C",[10],42.7%
same,"viability, T/C",[11],12.5%
same,"viability, T/C",[12],11.9%
same,"viability, T/C",[13],95.6%
same,"viability, T/C",[14],77.8%
same,"viability, T/C",[15],84.8%
same,"viability, T/C",[16],49.9%
same,"viability, T/C",[17],11.3%
same,"viability, T/C",[18],9.03%
same,"viability, T/C",[19],88.9%
same,"viability, T/C",[20],93.6%
same,"viability, T/C",[21],86.4%
same,"viability, T/C",[22],50.3%
same,"viability, T/C",[23],12.2%
same,"viability, T/C",[24],9.8%
same,"viability, T/C",[25],74.8%
same,"viability, T/C",[26],86.4%
same,"viability, T/C",[27],80.1%
same,"viability, T/C",[28],52.6%
same,"viability, T/C",[29],19.7%
same,"viability, T/C",[30],12.4%
